Data: patent US20070213283A1, “Macrolides substituted at the 4"-position” (priority 2003, published 2007)
Structures can show the parent of a compound that is named as a salt.

How the values were obtained:
Test in all cases: MIC, standard broth dilution method in microtitre
Assay type in all cases: cell-based
S. pneumoniae SP030 = details: Streptococcus pneumoniae
Protocol: (§1) Using a standard broth dilution method in microtitre, compounds were tested for antibacterial activity. The compounds in the above examples gave minimum inhibitory concentrations (MICs) less than 1 microgram per millilitre against erythromycin-sensitive and erythromycin-resistant strains of Streptococcus pneumoniae and Streptococcus pyogenes.
(§2) In addition, the MIC (μg/mL) of test compounds against various organisms was determined including:
(§3) S. aureus Smith ATCC 13709, S. pneumoniae SP030, S. pyogenes 3565, E. faecalis ATCC 29212, H. influenzae ATCC 49247, M. catarrhalis ATCC 23246.

S. pyogenes 3565 = details: Streptococcus pyogenes
Protocol: as §1, §2, §3

[1] = tested on: S. aureus Smith ATCC 13709; details: Staphylococcus aureus, ATCC13709
Protocol: as §1, §2, §3

E. faecalis ATCC 29212 = details: Enterococcus faecalis, ATCC29212
Protocol: as §1, §2, §3

H. influenzae ATCC 49247 = details: Haemophilus influenzae, ATCC49247; H. influenzae ATCC 49247; broth dilution in microtitre; read-out: MIC
Protocol: as §1, §2, §3

[2] = tested on: M. catarrhalis ATCC 23246; details: Moraxella catarrhalis, ATCC23246
Protocol: as §1, §2, §3

SMILES | MIC (S. pneumoniae SP030) [µg/mL] | MIC (S. pyogenes 3565) [µg/mL] | MIC [1] [µg/mL] | MIC (E. faecalis ATCC 29212) [µg/mL] | MIC (H. influenzae ATCC 49247) [µg/mL] | MIC [2] [µg/mL]
CC[C@@H]1OC(=O)[C@H](C)[C@H](O[C@@H]2C[C@](C)(OC)[C@H](OC(=O)CCNCCOc3ccc4c(c3)c(=O)c(C(=O)O)cn4CC)[C@H](C)O2)[C@@H](C)[C@H](O[C@@H]2O[C@H](C)C[C@H](N(C)C)[C@@H]2O)[C@](C)(O)C[C@H](C)CN(C)[C@H](C)[C@@H](O)[C@]1(C)O [Example 14, 4″-O-{3-[2-(3-Carboxy-1-ethyl-4-oxo-1,4-dihydro-6-quinolinyloxy)ethylamino]propionyl}-azithromycin tris trifluoroacetate salt] | ≤ 1 | ≤ 1 | ≤ 1 | ≤ 1 | – | –
CC[C@H]1OC(=O)[C@H](C)[C@@H](O[C@H]2C[C@@](C)(OC)[C@@H](OC(=O)CCOCCNc3cc4c(cc3F)c(=O)c(C(=O)O)cn4C3CC3)[C@H](C)O2)[C@H](C)[C@@H](O[C@@H]2O[C@H](C)C[C@H](N(C)C)[C@H]2O)[C@](C)(O)C[C@@H](C)CN(C)[C@H](C)[C@@H](O)[C@]1(C)O [Example 40, 4″-O-{3-[2-(3-Carboxy-1-cyclopropyl-6-fluoro-4-oxo-1,4-dihydro-quinolin-7-ylamino)ethoxy]propionyl}-azithromycin] | ≤ 1 | ≤ 1 | ≤ 1 | ≤ 1 | ≤ 2 | ≤ 2
CC[C@@H]1OC(=O)[C@H](C)[C@H](O[C@H]2C[C@](C)(OC)[C@@H](OC(=O)CCNCCSc3cnc4c(c3)c(=O)c(C(=O)O)cn4CC)[C@@H](C)O2)[C@@H](C)[C@H](O[C@H]2O[C@@H](C)C[C@@H](N(C)C)[C@H]2O)[C@@](C)(O)C[C@H](C)CN(C)[C@H](C)[C@@H](O)[C@@]1(C)O [Example 4, 4″-O-{3-[2-(3-Carboxy-1-ethyl-4-oxo-1,4-dihydro-[1,8]naphthyridin-6-ylsulfanyl)ethylamino]propionyl}-azithromycin tris trifluoroacetate salt] | ≤ 1 | ≤ 1 | ≤ 1 | ≤ 1 | ≤ 2 | ≤ 2
CC[C@H]1OC(=O)[C@H](C)[C@@H](O[C@H]2C[C@@](C)(OC)[C@@H](OC(=O)CCNCCSc3ccc4c(=O)c(C(=O)O)cn(CC)c4c3)[C@H](C)O2)[C@@H](C)[C@@H](O[C@@H]2O[C@H](C)C[C@H](N(C)C)[C@H]2O)[C@](C)(O)C[C@@H](C)CN(C)[C@H](C)[C@@H](O)[C@]1(C)O [Example 1, 4″-O-{3-[2-(3-Carboxy-1-ethyl-4-oxo-1,4-dihydro-7-quinolinylsulfanyl)ethylamino]propionyl}-azithromycin] | ≤ 1 | ≤ 1 | ≤ 1 | ≤ 1 | ≤ 2 | ≤ 2
CC[C@H]1OC(=O)[C@H](C)[C@@H](O[C@H]2C[C@@](C)(OC)[C@@H](OC(=O)CCOCCNc3cc4c(=O)c(C(=O)O)cn(C5CC5)c4cc3Cl)[C@H](C)O2)[C@H](C)[C@@H](O[C@@H]2O[C@H](C)C[C@H](N(C)C)[C@H]2O)[C@](C)(OC)C[C@@H](C)C(=O)[C@H](C)[C@@H](O)[C@]1(C)O [Example 36, 4″-O-{3-[2-(3-Carboxy-7-chloro-1-cyclopropyl-4-oxo-1,4-dihydro-quinolin-6-ylamino)ethoxy]propionyl}-6-O-methyl-erythromycin A] | ≤ 1 | ≤ 1 | ≤ 1 | ≤ 1 | – | –
CC[C@H]1OC(=O)[C@H](C)[C@@H](O[C@H]2C[C@@](C)(OC)[C@@H](OC(=O)CCOCCOc3ccc4c(c3)c(=O)c(C(=O)O)cn4C3CC3)[C@H](C)O2)[C@H](C)[C@@H](O[C@@H]2O[C@H](C)C[C@H](N(C)C)[C@H]2O)[C@](C)(O)C[C@@H](C)CN(C)[C@H](C)[C@H]2OC(=O)O[C@@]21C [Example 26, 4″-O-{3-[2-(3-Carboxy-1-cyclopropyl-4-oxo-1,4-dihydro-quinolin-6-yloxy)-ethoxy]-propionyl}-azithromycin11,12-carbonate] | ≤ 1 | ≤ 1 | ≤ 1 | ≤ 1 | ≤ 2 | ≤ 2
CC[C@@H]1OC(=O)[C@H](C)[C@H](O[C@H]2C[C@@](C)(OC)[C@@H](OC(=O)CCNCCSc3ccc4c(=O)c(C(=O)O)cn(CC)c4c3)[C@@H](C)O2)[C@@H](C)[C@H](OC2O[C@@H](C)C[C@@H](N(C)C)[C@H]2O)[C@@](C)(OC)C[C@H](C)C(=O)[C@H](C)[C@@H](O)[C@]1(C)O (some centres unmarked) [Example 3, 4″-O-{3-[2-(3-Carboxy-1-ethyl-4-oxo-1,4-dihydro-7-quinolinylsulfanyl)ethylamino]propionyl}-6-O-methyl-erythromycin A] | – | – | – | – | ≤ 2 | ≤ 2
CC[C@H]1OC(=O)[C@H](C)[C@@H](OC2C[C@@](C)(OC)[C@@H](OC(=O)CCOCCOc3ccc4c(c3)c(=O)c(C(=O)O)cn4C3CC3)[C@H](C)O2)[C@H](C)[C@@H](OC2O[C@H](C)C[C@H](N(C)C)[C@H]2O)[C@](C)(O)C[C@@H](C)CN(C)[C@H](C)[C@@H](OC)[C@]1(C)O (some centres unmarked) [Example 35, 4″-O-{3-[2-(3-Carboxy-1-cyclopropyl-4-oxo-1,4-dihydro-quinolin-6-yloxy)-ethoxy]-propionyl}-11-O-methyl-azithromycin] | ≤ 1 | ≤ 1 | ≤ 1 | ≤ 1 | ≤ 2 | ≤ 2
CC[C@@H]1OC(=O)[C@H](C)[C@@H](O[C@H]2C[C@@](C)(OC)[C@@H](OC(=O)CCNCCSc3ccc4c(=O)c(C(=O)O)cn(CC)c4c3)[C@@H](C)O2)[C@@H](C)[C@H](O[C@H]2O[C@@H](C)C[C@@H](N(C)C)[C@H]2O)[C@](C)(O)C[C@H](C)CN(C)[C@H](C)[C@H]2OC(=O)O[C@]12C [Example 2, 4″-O-{3-[2-(3-Carboxy-1-ethyl-4-oxo-1,4-dihydro-7-quinolinylsulfanyl)ethylamino]propionyl}-azithromycin-11,12-carbonate] | ≤ 1 | ≤ 1 | ≤ 1 | ≤ 1 | ≤ 2 | ≤ 2
CC[C@@H]1OC(=O)[C@H](C)[C@H](O[C@@H]2C[C@](C)(OC)[C@H](OC(=O)CCNCCOc3cc4c5c(c3)c(=O)c(C(=O)O)cn5CCC4)[C@H](C)O2)[C@@H](C)[C@H](O[C@@H]2O[C@H](C)C[C@H](N(C)C)[C@@H]2O)[C@](C)(O)C[C@H](C)CN(C)[C@H](C)[C@@H](O)[C@]1(C)O [Example 12, 4″-O-{3-[2-(6-Carboxy-7-oxo-2,3-dihydro-1H,7H-pyrido[3,2,1-ij]quinolin-9-yloxy)ethylamino]propionyl}-azithromycin tris trifluoroacetate salt] | ≤ 1 | ≤ 1 | ≤ 1 | ≤ 1 | – | –
CC[C@H]1OC(=O)[C@H](C)[C@@H](O[C@H]2C[C@@](C)(OC)[C@@H](OC(=O)CCOCCOc3cc4c(=O)c(C(=O)O)cn(C5CC5)c4cc3Cl)[C@H](C)O2)[C@H](C)[C@@H](O[C@@H]2O[C@H](C)C[C@H](N(C)C)[C@H]2O)[C@](C)(O)C[C@@H](C)CN(C)[C@H](C)[C@H]2OC(=O)O[C@@]21C [Example 25, 4″-O-{3-[2-(3-Carboxy-7-chloro-1-cyclopropyl-4-oxo-1,4-dihydro-quinolin-6-yloxy)-ethoxy]-propionyl}-azithromycin11,12-carbonate] | ≤ 1 | ≤ 1 | ≤ 1 | ≤ 1 | – | –
CC[C@@H]1OC(=O)[C@H](C)[C@H](O[C@@H]2C[C@@](C)(OC)[C@H](OC(=O)CCOCCOc3cc4c(=O)c(C(=O)O)cn(C5CC5)c4cc3Cl)[C@H](C)O2)[C@@H](C)[C@H](O[C@@H]2O[C@H](C)C[C@H](N(C)C)[C@@H]2O)[C@@](C)(OC)C[C@H](C)C(=O)[C@H](C)[C@@H](O)[C@]1(C)O [Example 37, 4″-O-{3-[2-(3-Carboxy-7-chloro-1 cyclopropyl-4-oxo-1,4-dihydro-quinolin-6-yloxy)ethoxy]propionyl}-6-O-methyl-erythromycin A] | ≤ 1 | ≤ 1 | ≤ 1 | ≤ 1 | – | –
CC[C@@H]1OC(=O)[C@H](C)[C@H](O[C@@H]2C[C@](C)(OC)[C@H](OC(=O)CCNCCSc3ccc4c(c3)c(=O)c(C(=O)O)cn4CC)[C@H](C)O2)[C@@H](C)[C@H](O[C@@H]2O[C@H](C)C[C@H](N(C)C)[C@@H]2O)[C@](C)(O)C[C@H](C)CN(C)[C@H](C)[C@@H](O)[C@]1(C)O [Example 10, 4″-O-{3-[2-(3-Carboxy-1-ethyl-4-oxo-1,4-dihydro-6-quinolinysulfanyl)ethylamino]propionyl}-azithromycin] | ≤ 1 | ≤ 1 | ≤ 1 | ≤ 1 | – | –
CC[C@H]1OC(=O)[C@H](C)[C@@H](OC2C[C@@](C)(OC)[C@@H](OC(=O)CCOCCOc3cc4c(=O)c(C(=O)O)cn(C5CC5)c4cc3Cl)[C@H](C)O2)[C@H](C)[C@@H](O[C@@H]2O[C@H](C)C[C@H](N(C)C)[C@H]2O)[C@](C)(O)C[C@@H](C)CN(C)[C@H](C)[C@@H](OC)[C@]1(C)O (some centres unmarked) [Example 34, 4″-O-{3-[2-(3-Carboxy-7-chloro-1-cyclopropyl-4-oxo-1,4-dihydro-quinolin-6-yloxy)-ethoxy]-propionyl}-11-O-methyl-azithromycin] | ≤ 1 | ≤ 1 | ≤ 1 | ≤ 1 | ≤ 2 | ≤ 2
